Results taken from PMC7168207, “Dibasic Derivatives of Phenylcarbamic Acid as Prospective Antibacterial Agents Interacting with Cytoplasmic Membrane” (Antibiotics, 2020).
Values joined by “and” are separate entries in the source; they are usually repeats but may differ in a detail not shown here. Identical values can stand only once. Like-named read-outs stand apart in the source and are kept apart here.

Key:
[1] = test system: methicillin-resistant S. aureus 63718; assay: MIC, broth microdilution; type: cell-based, Staphylococcus aureus; conditions: MRSA1 = S. aureus 63718; for MIC: read-out: MICs
Protocol: (§1) The modified broth microdilution method was used for in vitro evaluation of minimum inhibitory concentration. A small portion of bacterial colony cultivated overnight onto nutrient agar (Oxoid, Basingstoke, UK) with 5% bovine blood was suspended in sterile phosphate-buffered saline to get cell density 0.5 McFarland. This inoculum was diluted to reach the final concentration of bacterial cells 5 × 10^5 CFU/mL in the wells. […] For plates with staphylococci, cation adjusted Mueller–Hinton (CaMH) broth (Oxoid) was used; enterococci were cultivated in brain heart infusion (BHI, Oxoid). […] A drug-free control and a sterility control were included. Inoculated plates were incubated in aerobic atmosphere at 37 °C overnight. […] After evaluation of MICs, 10 µL of aliquots from the wells were put onto Mueller–Hinton agar. The agar plates were cultivated at 37 °C for 24 h. The minimum bactericidal concentration (MBC) was defined as the lowest concentration of the compound that killed 99.9% of the bacteria compared to the starting inoculum.

[2] = test system: methicillin-resistant S. aureus SA 630; assay: MIC, broth microdilution; type: cell-based, Staphylococcus aureus; conditions: MRSA2 = SA 630; for MIC: read-out: MICs
Protocol: as §1

[3] = test system: methicillin-resistant S. aureus SA 3202; assay: MIC, broth microdilution; type: cell-based, Staphylococcus aureus; conditions: MRSA3 = SA 3202; for MIC: read-out: MICs
Protocol: as §1

[4] = test system: S. aureus ATCC 29213; assay: MIC, broth microdilution; type: cell-based, Staphylococcus aureus
Protocol: as §1

[5] = test system: S. aureus ATCC 29213 biofilm; assay: biofilm inhibition assay (crystal violet); type: cell-based, Staphylococcus aureus; conditions: ≥80% inhibition of biofilm formation; for MBIC80 (minimum biofilm inhibitory concentration): 48 h
Protocol: (§2) The ability of compounds 1f, 1g, and 1h to inhibit biofilm growth and destroy the matured biofilm of S. aureus ATCC 29213 was investigated. The inhibitory activity was studied by the method with crystal violet. The activity to disrupt matured biofilm was evaluated as a decrease of metabolic activity using the MTT assay.
The plates were inoculated by inoculum of S. aureus ATCC 29213 grown in TSB + 2% glucose to exponential phase. Before the inoculation of the plate, the original inoculum was diluted to 1 McFarland and then 1:100 in fresh TSB + 2% glucose, to reach the final concentrations in the wells of […]. […] The plates were incubated at 37 °C for 48 h. After incubation, the contents of the wells were removed, and the plates were washed three times by sterile PBS. After drying, 125 μL of 0.5% crystal violet was added to each well and the plates were stained at room temperature for 20 min. Then the dye was removed, and the plates were washed three times by sterile PBS. The colored biofilm was detached from the wells using 33% solution of acetic acid. The absorbance at 595 nm was measured. As a blank, a non-inoculated plate treated in the same way was used. […] The minimum biofilm inhibitory concentration was the lowest concentration of the compounds, which inhibited the growth of 80% bacteria compared to the growth control. The experiment was made in duplicate and repeated at least three times.

[6] = test system: S. aureus ATCC 29213 biofilm; assay: biofilm susceptibility / eradication of preformed biofilm (MTT); type: cell-based, Staphylococcus aureus; conditions: for MBEC80 (minimum biofilm eradication concentration): 80% reduction of metabolic activity of preformed biofilm, 24 h
Protocol: as §2
Biofilms were grown as described above but without the presence of the compounds. After 48 h of incubation at 37 °C, the contents of the wells were removed, and the plates were washed three times by sterile PBS. After washing, 100 µL of tested compounds in CaMH were added to the wells. […] A growth control containing 2.5% of DMSO in CaMH was included. The plates were incubated at 37 °C for 24 h, then the solutions of compounds were removed, and the plates were gently washed three times by sterile PBS. Bacterial viability was analyzed using 100 µL of 0.05 mg/mL MTT (3-(4,5-dimethylthiazol-2-yl)- 2,5-diphenyltetrazolium bromide) in PBS in each well. The plates with MTT were incubated at 37 °C for 1–2 h in darkness, until the blue formazan crystals appeared. MTT solution was removed and the plates were washed once by PBS. Crystals of formazan were dissolved using 17% sodium dodecysulphate in 40% dimethylformamid. The absorbance at 570 nm was measured and the percentage of eradication was counted according to the equation (3) % of eradication = 100 − OD570S/OD570C × 100 where OD570S is the absorbance of the sample at 570 nm and OD570C is the absorbance of the growth control at 570 nm. The minimum biofilm eradication concentration was the lowest concentration of the compound, which reduced the metabolic activity of the biofilm by 80% compared to the growth control. The experiment was made in duplicate and repeated at least three times.

[7] = test system: vancomycin-resistant enterococci VRE 368; assay: MIC, broth microdilution; type: cell-based, Enterococcus faecalis; conditions: VRE2 = VRE 368; for MIC: read-out: MICs
Protocol: as §1

[8] = test system: vancomycin-resistant enterococci VRE 342B; assay: MIC, broth microdilution; type: cell-based, Enterococcus faecalis; conditions: VRE1 = VRE 342B; for MIC: read-out: MICs
Protocol: as §1

[9] = test system: vancomycin-resistant enterococci VRE 725B; assay: MIC, broth microdilution; type: cell-based, Enterococcus faecalis; conditions: VRE3 = VRE 725B; for MIC: read-out: MICs
Protocol: as §1

[10] = test system: E. faecalis ATCC 29212; assay: MIC, broth microdilution; type: cell-based, Enterococcus faecalis; conditions: EF = E. faecalis ATCC 29213
Protocol: as §1

[11] = test system: human monocytic leukemia THP-1 cells; assay: in vitro antiproliferative assay (WST-1); type: cell-based; conditions: THP-1 cells, WST-1, 24 h, read-out: Tox IC50
Protocol: The preliminary in vitro screening of the antiproliferative effect of the investigated compounds was performed using a Water Soluble Tetrazolium salts-1 (WST-1) assay kit and a human monocytic leukemia THP-1 cell line by means of the method described recently. The principle of the WST-1 assay kit is the […] mitochondrial dehydrogenases by antiproliferative compounds. The activity of this enzyme directly correlates with the number of metabolically active cells in the culture. The antiproliferative effect was evaluated as the IC50 value (the concentration of the compound causing 50% inhibition of cell proliferation).
Human monocytic leukemia THP-1 cells were used for in vitro antiproliferative assay. Cells were obtained from the European Collection of Cell Cultures (ECACC, Salisbury, UK) and routinely cultured in RPMI (Roswell Park Memorial Institute) 1640 medium supplemented with 10% fetal bovine serum, 2% L-glutamine, 1% penicillin, and streptomycin at 37 °C with 5% CO2. Cells were passaged at approximately one-week intervals. The antiproliferative activity of the compounds was determined using a Water Soluble Tetrazolium Salts-1 (WST-1, 2-(4-iodophenyl)-3-(4-nitrophenyl)-5-(2,4-disulfophenyl)-2H-tetrazolium) assay kit (Roche Diagnostics, Mannheim, Germany) according to the manufacturer’s instructions. The tested compounds were dissolved in DMSO and added in various compound concentrations to the cell suspension in the culture RPMI 1640 medium. The maximum concentration of DMSO in the assays never exceeded 0.1%. Subsequently, the cells were incubated at 37 °C with 5% CO2 for 24 h. For WST-1 assays, cells were seeded into 96-well plates (5 × 10^4 cells/well in 100 μL culture medium) in triplicate in serum-free RPMI 1640 medium, and measurements were taken 24 h after the treatment with the compounds. The median inhibition concentration values, IC50, were deduced through the production of a dose-response curve. All data were evaluated using GraphPad Prism 5.00 software (GraphPad Software, San Diego, CA, USA).

[12] = Staphylococcus aureus, ATCC29213, SA = S. aureus ATCC 29213, read-out: MICs
[13] = Staphylococcus aureus, ATCC29213, Table 7, planktonic cells of S. aureus ATCC 29213, read-out: MIC
[14] = Enterococcus faecalis, ATCC 29212 / ATCC 29213
[15] = SA = S. aureus ATCC 29213, read-out: MICs
[16] = Table 7, planktonic cells of S. aureus ATCC 29213

Row | Compound | MIC ([1]; Staphylococcus aureus) | MIC ([2]; Staphylococcus aureus) | MIC ([3]; Staphylococcus aureus) | MIC [4, 12] | MIC [4, 13] | MBIC80 (minimum biofilm inhibitory concentration) [5] | MBEC80 (minimum biofilm eradication concentration) [6] | MIC ([7]; Enterococcus) | MIC ([8]; Enterococcus) | MIC ([9]; Enterococcus) | MIC [10, 14] | IC50 ([11]; Homo sapiens, THP-1, 24 h) | MICs [1] | MIC [1] | MICs [2] | MIC [2] | MICs [3] | MIC [3] | MICs ([4]; SA = S. aureus ATCC 29213) | MIC [4, 15] | further results
1 | CCCCCCCCCCCCCCCC[N+](C)(C)Cc1ccccc1 [CTC, cetalkonium chloride, reference compound] | 0.25 µg/mL and 0.63 µM | 0.5 µg/mL and 1.26 µM | 1 µg/mL and 2.53 µM | 0.25 µg/mL and 0.63 µM | 0.25 µg/mL | 0.25 µg/mL | >256 µg/mL | 0.5 µg/mL and 1.26 µM | 0.5 µg/mL and 1.26 µM | 0.5 µg/mL and 1.26 µM | 1 µg/mL and 2.53 µM | 1290 ± 70 nM | – | – | – | – | – | – | – | – | activity on preformed biofilm [6]: did not show any activity on preformed biofilm
2 | CCN(CC)CCOC(=O)c1ccc(N)cc1 [PRC, procaine, reference compound] | > 256 µg/mL and > 1080 µM | > 256 µg/mL and > 1080 µM | > 256 µg/mL and > 1080 µM | > 256 µg/mL and > 1080 µM | > 256 µg/mL | >256 µg/mL | >256 µg/mL | > 256 µg/mL and > 1080 µM | > 256 µg/mL and > 1080 µM | > 256 µg/mL and > 1080 µM | > 256 µg/mL and > 1080 µM | > 300000 nM | – | – | – | – | – | – | – | – | –
3 | CCCCCCCCCCCCOS(=O)(=O)[O-].[Na+] [SDS, sodium dodecyl sulfate, reference compound] | – | – | – | – | – | 32 µg/mL | 128 µg/mL | – | – | – | – | – | 128 µg/mL | 443 µM | 64 µg/mL | 222 µM | 64 µg/mL | 222 µM | 128 µg/mL | 443 µM | MIC [4, 16]: 128 µg/mL; MICs [7]: 128 µg/mL; MIC [7]: 443 µM; MICs [8]: 256 µg/mL; MIC [8]: 887 µM; MICs [9]: 128 µg/mL; MIC [9]: 443 µM; MIC [10]: 443 µM; MICs [10]: 128 µg/mL
4 | CCCCNc1ccc(C(=O)OCCN(C)C)cc1 [TEC, tetracaine, reference compound] | > 256 µg/mL and > 968 µM | > 256 µg/mL and > 968 µM | > 256 µg/mL and > 968 µM | > 256 µg/mL and > 968 µM | > 256 µg/mL | >256 µg/mL | >256 µg/mL | > 256 µg/mL and > 968 µM | > 256 µg/mL and > 968 µM | > 256 µg/mL and > 968 µM | > 256 µg/mL and > 968 µM | 224000 ± 6520 nM | – | – | – | – | – | – | – | – | –
5 | carbethopendecinium bromide [CRB, reference compound] | – | – | – | – | – | 0.25 µg/mL | 64 µg/mL | – | – | – | – | – | 0.25 µg/mL | 0.59 µM | 0.5 µg/mL | 1.18 µM | 2 µg/mL | 4.73 µM | 0.25 µg/mL | 0.59 µM | MIC [4, 16]: 0.25 µg/mL; minimum biofilm inhibitory concentration relative to MIC against planktonic cells [5]: comparable to its MIC; MICs [7]: 0.25 µg/mL; MIC [7]: 0.59 µM; MICs [8]: 0.5 µg/mL; MIC [8]: 1.18 µM; MICs [9]: 0.5 µg/mL; MIC [9]: 1.18 µM; MIC [10]: 1.18 µM; MICs [10]: 0.5 µg/mL; IC50 [11]: 1730 ± 80 nM
